Drawing on ChEMBL document CHEMBL1156029, “The discovery of thienopyridine analogues as potent IkappaB kinase beta inhibitors. Part II” (Bioorg Med Chem Lett, 2009), this text covers IC50 for 46 compounds.

In this experiment the target is T1, Inhibitor of nuclear factor kappa-B kinase subunit beta (Homo sapiens, UniProt O14920).
T1 sequence (O14920 whole entry): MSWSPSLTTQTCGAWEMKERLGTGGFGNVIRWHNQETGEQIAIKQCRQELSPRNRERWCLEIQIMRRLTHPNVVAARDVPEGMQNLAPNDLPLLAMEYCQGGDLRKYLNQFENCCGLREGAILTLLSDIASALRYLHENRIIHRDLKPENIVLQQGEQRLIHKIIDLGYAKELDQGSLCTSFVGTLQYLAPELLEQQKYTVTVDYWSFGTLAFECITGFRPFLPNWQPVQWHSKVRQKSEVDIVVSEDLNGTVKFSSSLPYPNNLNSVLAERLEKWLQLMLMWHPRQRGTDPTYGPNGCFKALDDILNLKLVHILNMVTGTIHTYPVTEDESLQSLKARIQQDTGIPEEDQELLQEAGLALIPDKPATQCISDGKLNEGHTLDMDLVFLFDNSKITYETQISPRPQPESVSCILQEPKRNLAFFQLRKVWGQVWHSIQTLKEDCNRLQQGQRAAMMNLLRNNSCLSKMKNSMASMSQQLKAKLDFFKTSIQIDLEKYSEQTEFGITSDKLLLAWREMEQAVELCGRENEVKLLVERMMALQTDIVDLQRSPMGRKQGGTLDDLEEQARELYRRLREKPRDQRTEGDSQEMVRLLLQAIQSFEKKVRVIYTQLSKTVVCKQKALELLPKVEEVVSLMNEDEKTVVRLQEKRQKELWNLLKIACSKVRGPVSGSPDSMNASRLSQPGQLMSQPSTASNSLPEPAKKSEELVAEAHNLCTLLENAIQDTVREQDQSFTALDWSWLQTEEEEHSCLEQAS
Briefly: Inhibition of Flag epitope-tagged IKK-beta preincubated for 5 mins by scintillation proximity assay.
Compound `CCCc1cc(N2CCC(O)C(C)(C)C2)nc2sc(C(N)=O)c(N)c12` (single isomer, unassigned; enantiomer 1) gave an IC50 of 0.042 µM.

As to `CCCc1cc(N2CCCCC(N)C2)nc2sc(C(N)=O)c(N)c12` (stereo unspecified), the IC50 stood at 0.63 µM.

For the compound `CCCc1cc(N2CC[C@H](O)C2)nc2sc(C(N)=O)c(N)c12`, the 50% inhibitory concentration (IC50) amounted to 1.45 µM.

Turning to `Cc1cc(N2CCC(O)CC2)nc2sc(C(N)=O)c(N)c12`, the IC50 was determined as 0.75 µM.

As to `Cc1cc(OCCCO)nc2sc(C(N)=O)c(N)c12`, the IC50 is 5.1 µM.

Regarding `Cc1cc(OCCCN)nc2sc(C(N)=O)c(N)c12`, the IC50 was more than 50 µM.

In turn, `COCCOc1ccnc2sc(C(N)=O)c(N)c12` gave an IC50 of 10.8 µM.

In turn, `CCCc1cc(N2CCCNC(=O)C2)nc2sc(C(N)=O)c(N)c12` showed an IC50 of 0.14 µM.

In the case of `Cc1cc(-c2ccc(O)cc2)c2c(N)c(C(N)=O)sc2n1`, the half-maximal inhibitory concentration (IC50) is more than 20 µM.

In turn, `Cc1ccc(-c2cc(C)nc3sc(C(N)=O)c(N)c23)cc1` registered an IC50 of 8.5 µM.

Take `CCCc1cc(N2CCC(C(N)=O)CC2)nc2sc(C(N)=O)c(N)c12`: the IC50 came out at 1.3 µM.

For `COc1ccnc2sc(C(N)=O)c(N)c12`, half-maximal inhibition (IC50) required 4.7 µM.

Take `Cc1cc(-c2cc3ccccc3o2)c2c(N)c(C(N)=O)sc2n1`: the 50% inhibitory concentration (IC50) was found to be 16.9 µM.

For `CCCc1cc(N2CC[C@@H](O)C2)nc2sc(C(N)=O)c(N)c12`, the half-maximal inhibitory concentration (IC50) was 1.95 µM.

In turn, `CCCc1cc(N2CCN(C)CC2)nc2sc(C(N)=O)c(N)c12` gave an IC50 of 0.52 µM.

On to `CCCc1cc(N2CCC(N(C)C)CC2)nc2sc(C(N)=O)c(N)c12`, for which the IC50 is 0.68 µM.

In the case of `CCCc1cc(N2CCC(NC)CC2)nc2sc(C(N)=O)c(N)c12`, the IC50 was found to be 0.12 µM.

Compound `CCCc1cc(N2CC[C@H](N)C2)nc2sc(C(N)=O)c(N)c12` displayed an IC50 of 0.59 µM.

On to `Cc1ccc2c(N)c(C(N)=O)sc2n1`, for which 12.7 µM corresponded to half-maximal inhibition (IC50).

As to `Cc1cc(OCCN)nc2sc(C(N)=O)c(N)c12`, the midpoint of inhibition, the IC50, lay at 2.9 µM.

On to `Cc1cc(N2CCOCC2)nc2sc(C(N)=O)c(N)c12`, for which it took 2.5 µM to reach half-maximal inhibition (IC50).

Turning to `Cc1cc(-c2ccccc2)c2c(N)c(C(N)=O)sc2n1`, the IC50 was determined as 7.4 µM.

Turning to `CCCc1cc(N2CCN(C(N)=O)CC2)nc2sc(C(N)=O)c(N)c12`, the IC50 came to 0.15 µM.

Consider `CCCc1cc(N2CCCNCC2)nc2sc(C(N)=O)c(N)c12`, for which the IC50 amounted to 0.072 µM.

`Cc1cc(NCCO)nc2sc(C(N)=O)c(N)c12` yielded an IC50 of 5.8 µM.

As to `Cc1cc(CC(C)C)c2c(N)c(C(N)=O)sc2n1`, the midpoint of inhibition, the IC50, lay at 2.5 µM.

`Cc1cc(N2CCCCC2)nc2sc(C(N)=O)c(N)c12` gave an IC50 of 2.4 µM.

In the case of `CCCc1cc(C)nc2sc(C(N)=O)c(N)c12`, the IC50 is 1.3 µM.

`CCCc1cc(N2CCC(NS(C)(=O)=O)CC2)nc2sc(C(N)=O)c(N)c12`: the 50% inhibitory concentration (IC50) stood at 0.098 µM.

Compound `Cc1cc(N2CCNCC2)nc2sc(C(N)=O)c(N)c12` showed a concentration for half-maximal inhibition (IC50) of 0.68 µM.

`Cc1cc(-c2ccco2)c2c(N)c(C(N)=O)sc2n1` gave an IC50 of 1.1 µM.

For the compound `CCCc1cc(N2CCC(OC)CC2)nc2sc(C(N)=O)c(N)c12`, it took 0.68 µM to reach half-maximal inhibition (IC50).

For the compound `Cc1cc(-c2ccccn2)c2c(N)c(C(N)=O)sc2n1`, the IC50 worked out at 6 µM.

Regarding `Cc1cc(-c2ccc(S(C)(=O)=O)cc2)c2c(N)c(C(N)=O)sc2n1`, the midpoint of inhibition, the IC50, lay at 1.3 µM.

`Cc1cc(OCCO)nc2sc(C(N)=O)c(N)c12` gave an IC50 of 6.6 µM.

As to `Cc1cc(-c2ccc(Cl)cc2)c2c(N)c(C(N)=O)sc2n1`, the half-inhibitory concentration (IC50) was determined as 14 µM.

`Cc1cc(N2CCCC(O)C2)nc2sc(C(N)=O)c(N)c12` (stereo unspecified): 2.4 µM corresponded to half-maximal inhibition (IC50).

The compound `Cc1cc(CO)c2c(N)c(C(N)=O)sc2n1` displayed an IC50 of 13.5 µM.

Compound `CCCc1cc(N2CCNC(=O)C2)nc2sc(C(N)=O)c(N)c12` registered an IC50 of 2 µM.

`CCCc1cc(N2CC[C@@H](N)C2)nc2sc(C(N)=O)c(N)c12` displayed an IC50 of 0.5 µM.

`CCCOc1ccnc2sc(C(N)=O)c(N)c12`: the IC50 is 2.2 µM.

For `CCOc1ccnc2sc(C(N)=O)c(N)c12`, the IC50 turned out to be 2 µM.

In turn, `CCCc1cc(N2CCC(C(=O)OC)CC2)nc2sc(C(N)=O)c(N)c12` yielded a 50% inhibitory concentration (IC50) of 7.8 µM.

In turn, `Cc1cc(-c2cccs2)c2c(N)c(C(N)=O)sc2n1` gave an IC50 of 2 µM.

For `CCCc1cc(N2CCC(O)C(C)(C)C2)nc2sc(C(N)=O)c(N)c12` (single isomer, unassigned; enantiomer 2), 0.24 µM corresponded to half-maximal inhibition (IC50).

As for `Cc1cc(C)c2c(N)c(C(N)=O)sc2n1`, the midpoint of inhibition, the IC50, lay at 2.7 µM.

As a reminder, the IC50 is the concentration that inhibits the measured activity by half. Low values mean higher potency, high ones lower potency.
